Experimental data reported in patent US20240025887A1, “THIENYL AND CYCLOALKYL AMINOPYRIMIDINE COMPOUNDS AS INHIBITORS OF NUAK KINASES, COMPOSITIONS AND USES THEREOF” (Ontario Institute for Cancer Research (OICR), priority 2021, published 2024).

What was measured:
Format in all cases: biochemical
NUAK2 (h) = biological target: T1, NUAK2 (h) (Homo sapiens, UniProt Q9H093); assay: NUAK2 enzymatic assay (radiometric, Eurofins); conditions: for IC50: radiometric, full-length recombinant enzyme; for AUR-A (IC50, nM)/NUAK2 (IC50, nM): NUAK2 selectivity over Aurora-A, ratio of IC50s
T1 construct: This assay was done radiometrically using full-length, recombinant enzyme; purchased Eurofins
T1 sequence (Q9H093 1-628): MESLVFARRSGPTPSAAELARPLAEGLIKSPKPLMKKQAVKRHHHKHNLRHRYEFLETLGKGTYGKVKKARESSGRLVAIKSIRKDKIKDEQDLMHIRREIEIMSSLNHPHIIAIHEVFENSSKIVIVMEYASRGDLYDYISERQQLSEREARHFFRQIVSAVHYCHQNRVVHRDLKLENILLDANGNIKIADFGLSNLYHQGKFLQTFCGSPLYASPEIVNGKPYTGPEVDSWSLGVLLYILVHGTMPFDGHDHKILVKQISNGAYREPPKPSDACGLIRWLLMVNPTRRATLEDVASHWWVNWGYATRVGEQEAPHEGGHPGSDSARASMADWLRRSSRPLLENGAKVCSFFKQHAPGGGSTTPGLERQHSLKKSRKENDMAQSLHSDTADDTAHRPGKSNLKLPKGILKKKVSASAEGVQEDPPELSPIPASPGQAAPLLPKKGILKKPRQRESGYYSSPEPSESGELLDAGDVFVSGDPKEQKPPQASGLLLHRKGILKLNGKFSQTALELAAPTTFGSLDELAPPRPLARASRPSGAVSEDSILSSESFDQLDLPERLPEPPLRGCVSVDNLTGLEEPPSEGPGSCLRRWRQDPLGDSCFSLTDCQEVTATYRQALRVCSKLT
Protocol: (§1) To identify small molecule NUAK inhibitors, a biochemical NUAK2 enzymatic assay was outsourced to Eurofins. This assay was done radiometrically using full-length, recombinant enzyme. NUAK2 (h) was incubated with 8 mM MOPS pH 7.0, 0.2 mM EDTA, 300 μM […], 10 mM magnesium acetate and […] (specific activity and concentration as required). The reaction was initiated by the addition of the Mg/ATP mix. After incubation for 40 minutes at room temperature, the reaction was stopped by the addition of phosphoric acid to a concentration of 0.5%. 10 μL of the reaction was then spotted onto a P30 filter mat and washed four times for 4 minutes in 0.425% phosphoric acid and once in methanol prior to drying and scintillation counting. Compounds were routinely counter screened against Aurora A and NUAK1. The results are shown in Table 1 where IC50s are reported the following ranges: A: 0.1-10 nM; B: 11-100 nM; C: 101-1000 nM; D: >1000 nM for the compounds of Formula I)

NUAK1 = biological target: T2, NUAK1 (Homo sapiens, UniProt O60285); assay: NUAK1 counter screen
T2 sequence (O60285 1-661): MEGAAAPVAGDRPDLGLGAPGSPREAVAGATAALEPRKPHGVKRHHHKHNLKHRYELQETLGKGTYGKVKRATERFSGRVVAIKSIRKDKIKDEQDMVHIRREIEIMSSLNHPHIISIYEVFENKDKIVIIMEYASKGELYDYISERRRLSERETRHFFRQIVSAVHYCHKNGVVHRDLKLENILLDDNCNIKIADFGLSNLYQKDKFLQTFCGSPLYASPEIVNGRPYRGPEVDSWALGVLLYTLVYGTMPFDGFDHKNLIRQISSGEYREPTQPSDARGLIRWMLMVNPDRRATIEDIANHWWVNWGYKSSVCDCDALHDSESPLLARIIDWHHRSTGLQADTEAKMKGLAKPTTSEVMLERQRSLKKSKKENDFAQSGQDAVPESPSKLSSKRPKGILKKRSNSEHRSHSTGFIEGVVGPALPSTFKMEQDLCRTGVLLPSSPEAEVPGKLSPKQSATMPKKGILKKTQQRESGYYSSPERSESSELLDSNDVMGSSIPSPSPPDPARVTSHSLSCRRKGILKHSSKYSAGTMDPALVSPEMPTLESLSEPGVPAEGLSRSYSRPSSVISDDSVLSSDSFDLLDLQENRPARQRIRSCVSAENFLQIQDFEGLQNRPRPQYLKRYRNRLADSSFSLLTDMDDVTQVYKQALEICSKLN
Protocol: as §1

Aurora A = biological target: T3, Aurora A (Homo sapiens, UniProt O14965); assay: Aurora A counter screen; conditions: read-out: AUR-A (IC50)
T3 sequence (O14965 1-403): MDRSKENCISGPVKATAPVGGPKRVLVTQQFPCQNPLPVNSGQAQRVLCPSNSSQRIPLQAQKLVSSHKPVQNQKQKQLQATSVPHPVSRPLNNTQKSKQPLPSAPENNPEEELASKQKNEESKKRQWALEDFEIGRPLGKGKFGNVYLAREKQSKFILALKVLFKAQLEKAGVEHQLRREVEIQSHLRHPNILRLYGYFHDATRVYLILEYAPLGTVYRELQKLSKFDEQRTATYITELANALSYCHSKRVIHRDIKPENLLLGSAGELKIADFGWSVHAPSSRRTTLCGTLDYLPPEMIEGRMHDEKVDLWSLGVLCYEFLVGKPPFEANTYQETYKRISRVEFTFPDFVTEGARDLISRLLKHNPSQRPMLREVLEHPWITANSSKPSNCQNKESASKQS
Protocol: as §1

| IC50 (NUAK2 (h)) | IC50 (NUAK1) | IC50 (Aurora A) | AUR-A (IC50, nM)/NUAK2 (IC50, nM) (NUAK2 (h)) | Compound |
| --- | --- | --- | --- | --- |
| 11 to 100 nM | 11 to 100 nM | 101 to 1000 nM |  | CC(C)N1C[C@@H]2C[C@H]1CN2c1ccc(Nc2ncc(Cl)c(Nc3ccsc3C(N)=O)n2)c(OC(F)F)c1 (stereo in doubt) [Compound I-35, 3-((5-chloro-2-((2-(difluoromethoxy)-4-((1S,4S)-5-isopropyl-2,5-diazabicyclo[2.2.1]heptan-2-yl)phenyl)amino)pyrimidin-4-yl)amino)thiophene-2-carboxamide] |
| 11 to 100 nM | 11 to 100 nM | 101 to 1000 nM |  | CC(C)N1C[C@@H]2C[C@H]1CN2c1ccc(Nc2ncc(Cl)c(Nc3sccc3C(N)=O)n2)c(OC(F)F)c1 (stereo in doubt) [Compound I-36, 2-((5-chloro-2-((2-(difluoromethoxy)-4-((1S,4S)-5-isopropyl-2,5-diazabicyclo[2.2.1]heptan-2-yl)phenyl)amino)pyrimidin-4-yl)amino)thiophene-3-carboxamide] |
| 0.1 to 10 nM | 0.1 to 10 nM | 11 to 100 nM | 6 | COc1cc(N2CCN(C)CC2)ccc1Nc1ncc(Cl)c(Nc2ccsc2C(N)=O)n1 [Compound C-1, reference compound] |
| 0.1 to 10 nM | 0.1 to 10 nM | 101 to 1000 nM | 71 | COc1c(Nc2ncc(Cl)c(Nc3ccsc3C(N)=O)n2)ccc(N2CCN(C)CC2)c1F [Compound C-2, reference compound] |
| 11 to 100 nM | 11 to 100 nM | 101 to 1000 nM | 6 | COc1cc(N2CCC(N3CCN(C)CC3)CC2)ccc1Nc1ncc(Cl)c(Nc2ccsc2C(N)=O)n1 [Compound C-3, reference compound] |
| 0.1 to 10 nM | 0.1 to 10 nM | 101 to 1000 nM | 50 | CN1CCN(c2ccc(Nc3ncc(Cl)c(Nc4ccsc4C(N)=O)n3)c(Cl)c2F)CC1 [Compound C-4, reference compound] |
| 0.1 to 10 nM | 11 to 100 nM | 101 to 1000 nM | 14 | Cc1c(Nc2ncc(Cl)c(Nc3ccsc3C(N)=O)n2)ccc(N2CCN(C)CC2)c1F [Compound C-5, reference compound] |
| 101 to 1000 nM | > 1000 nM | > 1000 nM | 14 | CC(C)Oc1cc(N2CCN(C)CC2)ccc1Nc1ncc(Cl)c(N[C@@H]2CCCC[C@@H]2C(N)=O)n1 [Compound C-6, reference compound] |
| 11 to 100 nM | 11 to 100 nM | > 1000 nM |  | NC(=O)c1ccsc1Nc1nc(Nc2ccc(N3CCNCC3)cc2OC(F)F)ncc1Cl [Compound I-2, 2-((5-chloro-2-((2-(difluoromethoxy)-4-(piperazin-1-yl)phenyl)amino)pyrimidin-4-yl)amino)thiophene-3-carboxamide] |
| 101 to 1000 nM | 101 to 1000 nM | > 1000 nM |  | CN1CCN(c2ccc(Nc3nccc(Nc4ccsc4C(N)=O)n3)c(OC(F)F)c2)CC1 [Compound I-3, 3-((2-((2-(difluoromethoxy)-4-(4-methylpiperazin-1-yl)phenyl)amino)pyrimidin-4-yl)amino)thiophene-2-carboxamide] |
| 11 to 100 nM | 11 to 100 nM | > 1000 nM |  | Cc1cnc(Nc2ccc(N3CCN(C)CC3)cc2OC(F)F)nc1Nc1ccsc1C(N)=O [Compound I-4, 3-((2-((2-(difluoromethoxy)-4-(4-methylpiperazin-1-yl)phenyl)amino)-5-methylpyrimidin-4-yl)amino)thiophene-2-carboxamide] |
| 11 to 100 nM | 11 to 100 nM | > 1000 nM |  | CCN1CCN(c2ccc(Nc3ncc(Cl)c(Nc4ccsc4C(N)=O)n3)c(OC(F)F)c2)CC1 [Compound I-5, 3-((5-chloro-2-((2-(difluoromethoxy)-4-(4-ethylpiperazin-1-yl)phenyl)amino)pyrimidin-4-yl)amino)thiophene-2-carboxamide] |
| 11 to 100 nM | 11 to 100 nM | 101 to 1000 nM |  | CN1CCN(c2cc(OC(F)F)c(Nc3ncc(Cl)c(Nc4ccsc4C(N)=O)n3)cc2F)CC1 [Compound I-6, 3-((5-chloro-2-((2-(difluoromethoxy)-5-fluoro-4-(4-methylpiperazin-1-yl)phenyl)amino)pyrimidin-4-yl)amino)thiophene-2-carboxamide] |
| 11 to 100 nM | 11 to 100 nM | 101 to 1000 nM |  | CNC(=O)c1sccc1Nc1nc(Nc2ccc(N3CCN(C)CC3)cc2OC(F)F)ncc1Cl [Compound I-7, 3-((5-chloro-2-((2-(difluoromethoxy)-4-(4-methylpiperazin-1-yl)phenyl)amino)pyrimidin-4-yl)amino)-N-methylthiophene-2-carboxamide] |
| 0.1 to 10 nM | 0.1 to 10 nM | 11 to 100 nM |  | C[C@@H]1CN(c2ccc(Nc3ncc(Cl)c(Nc4ccsc4C(N)=O)n3)c(OC(F)F)c2)C[C@H](C)N1C [Compound I-8, 3-((5-chloro-2-((2-(difluoromethoxy)-4-((3R,5S)-3,4,5-trimethylpiperazin-1-yl)phenyl)amino)pyrimidin-4-yl)amino)thiophene-2-carboxamide] |
| 0.1 to 10 nM | 11 to 100 nM | 101 to 1000 nM |  | CN1C[C@H]2C[C@@H]1CN2c1ccc(Nc2ncc(Cl)c(Nc3ccsc3C(N)=O)n2)c(OC(F)F)c1 [Compound I-9, 3-((5-chloro-2-((2-(difluoromethoxy)-4-((1R,4R)-5-methyl-2,5-diazabicyclo[2.2.1]heptan-2-yl)phenyl)amino)pyrimidin-4-yl)amino)thiophene-2-carboxamide] |
| 0.1 to 10 nM | 11 to 100 nM | > 1000 nM |  | CN1CCN(c2ccc(Nc3ncc(Cl)c(Nc4ccsc4C(N)=O)n3)c(OC(F)(F)F)c2)CC1 [Compound I-10, 3-((5-chloro-2-((4-(4-methylpiperazin-1-yl)-2-(trifluoromethoxy)phenyl)amino)pyrimidin-4-yl)amino)thiophene-2-carboxamide] |
| 11 to 100 nM |  | > 1000 nM |  | CNC(=O)c1sccc1Nc1nc(Nc2ccc(N3CCN(C)CC3)cc2C(F)(F)F)ncc1Cl [Compound I-59, 3-((5-chloro-2-((4-(4-methylpiperazin-1-yl)-2-(trifluoromethyl)phenyl)amino)pyrimidin-4-yl)amino)-N-methylthiophene-2-carboxamide] |
|  | 11 to 100 nM | > 1000 nM |  | CN1CCN(C2CCN(c3ccc(Nc4ncc(Cl)c(Nc5sccc5C(N)=O)n4)c(OC(F)F)c3)CC2)CC1 [Compound I-74, 2-((5-chloro-2-((2-(difluoromethoxy)-4-(4-(4-methylpiperazin-1-yl)piperidin-1-yl)phenyl)amino)pyrimidin-4-yl)amino)thiophene-3-carboxamide] |
| 11 to 100 nM | 101 to 1000 nM |  |  | COc1cnc(Nc2ccc(N3CCN(C)CC3)cc2OC(F)F)nc1Nc1ccsc1C(N)=O [Compound I-81] |
